A short description of assay [1]: Tested for anticancer activity against human lung cancer (NSCLC). The class given is functional.
A further assay relates to Melanoma cell. Nature of the assay: Tested for anticancer activity against human melanoma. Format: functional, cell-based.
The subject of the next assay is Breast cancer cell line. As to the kind of experiment: Tested for anticancer activity against human breast cancer. Format: functional, cell-based.
For a further assay, the species on record is Homo sapiens. Nature of the assay: Tested against normal human peripheral blood dendritic cells, expressed as IC50. The class given is functional, cell-based.
The next assay deals with Ovarian cancer cell line. As to the kind of experiment: Tested for anticancer activity against human ovarian cancer. Format: functional, cell-based.
For the next assay, the species on record is Rattus norvegicus. Nature of the assay: Tested for diffusion of compound into rat skin receptor fluid, at a dose of 0.05 mg. The class given is functional.
The mark [2] stands for this setting: Homo sapiens, Melanoma cell, read-out: IC50.

As usually defined, the IC50 is the point on the concentration scale where inhibition reaches its midpoint.

Molecules are shown by their SMILES. ≈ marks a conversion by molar mass, not a printed value.

In the case of `CN(C)c1ccc2nc3ccc(N(C)C)cc3[s+]c2c1.O=[N+]([O-])c1ccc(NN=C(c2ccc(O)cc2)c2ccc(O)cc2)c([N+](=O)[O-])c1.[Cl-]`, the IC50 in assay [1] is 2 µg/mL; in the assay with Melanoma cell (melanoma cell), 1 µg/mL; in the assay on Breast cancer cell line it was 2.5 µg/mL; in the assay filed under Homo sapiens, greater than 10 µg/mL; in the assay on Ovarian cancer cell line it was 2 µg/mL. Further, the Activity in the assay filed under Rattus norvegicus was 9 ng/mL.
Regarding `Cc1cc2nc3ccc(N(C)C)cc3[s+]c2cc1N.O=[N+]([O-])c1ccc(NN=C(c2ccc(O)cc2)c2ccc(O)cc2)c([N+](=O)[O-])c1.[Cl-]`, the concentration for half-maximal inhibition (IC50) in assay [1] was found to be 3 µg/mL; in the assay with Melanoma cell (setting [2]), 4 µg/mL; with Breast cancer cell line, 1.5 µg/mL.
For `Nc1ccc2nc3ccc(N)cc3[s+]c2c1.O=[N+]([O-])c1ccc(NN=C(c2ccc(O)cc2)c2ccc(O)cc2)c([N+](=O)[O-])c1.[Cl-]`, the IC50 in assay [1] was greater than 10 µg/mL; in the assay with Breast cancer cell line, 0.9 µg/mL; in the assay on Ovarian cancer cell line, 0.2 µg/mL.
Consider `COc1cccc2c1C(=O)c1c(O)c3c(c(O)c1C2=O)C[C@@](O)(C(=O)CO)C[C@@H]3O[C@H]1C[C@H](N)[C@H](O)[C@H](C)O1` [DOXORUBICIN], for which the IC50 in assay [1] was greater than 30 µg/mL; in the assay with Melanoma cell (setting [2]), greater than 5 µg/mL; in the assay on Breast cancer cell line, 0.9 µg/mL (≈ 1.66 µM).
As to `O=[N+]([O-])c1ccc(NN=C(c2ccc(O)cc2)c2ccc(O)cc2)c([N+](=O)[O-])c1` [SIVIFENE], the IC50 in assay [1] was 4 µg/mL (≈ 10.1 µM); in the assay with Melanoma cell (setting [2]), greater than 10 µg/mL; in the assay on Breast cancer cell line, greater than 10 µg/mL; in the assay filed under Homo sapiens it was greater than 10 µg/mL; with Ovarian cancer cell line it was 9 µg/mL (≈ 22.8 µM).

For the origin of these results see ChEMBL document CHEMBL1134421, “Anticancer properties for 4,4'-dihydroxybenzophenone-2,4-dinitrophenylhydrazone (A-007)/3,7-diaminophenothiazin-5-ium double salts” (Bioorg Med Chem Lett, 2001).
